From the supplement of paper PMC10307832

What was measured:
Test in all cases: relative viability (nuclei count vs DMSO), 5 days (fraction); higher = more cells survive
NCI-H1395 = test system: NCI-H1395
Method in brief: (§1)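 Relative viability was taken as the ratio of nuclei in treated wells to nuclei in vehicle wells. Lung cancer cell lines in 1536-well plates received compounds by pin tool one day after seeding, either one drug alone or a fixed anchor-drug dose plus five library-drug doses (not always all listed) in √10 steps. Nuclei were counted on 4× images after 5 days of treatment, and values are medians of duplicate plates.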

SK-LU-1 = test system: SK-LU-1
Method in brief: as §1

NCI-H838 = test system: NCI-H838
Method in brief: as §1

NCI-H1355 = test system: NCI-H1355
Method in brief: as §1

SW 1573 = test system: SW 1573
Method in brief: as §1

NCI-H650 = test system: NCI-H650
Method in brief: as §1

NCI-H2126 = test system: NCI-H2126
Method in brief: as §1

NCI-H322M = test system: NCI-H322M
Method in brief: as §1

LCLC-97TM1 = test system: LCLC-97TM1
Method in brief: as §1

NCI-H2347 = test system: NCI-H2347
Method in brief: as §1

BEN = test system: BEN
Method in brief: as §1

NCI-H1944 = test system: NCI-H1944
Method in brief: as §1

201T = test system: 201T
Method in brief: as §1

NCI-H3122 = test system: NCI-H3122
Method in brief: as §1

HOP-62 = test system: HOP-62
Method in brief: as §1

HCC-78 = test system: HCC-78
Method in brief: as §1

NCI-H1793 = test system: NCI-H1793
Method in brief: as §1

LOU-NH91 = test system: LOU-NH91
Method in brief: as §1

NCI-H1651 = test system: NCI-H1651
Method in brief: as §1

NCI-H441 = test system: NCI-H441
Method in brief: as §1

NCI-H1915 = test system: NCI-H1915
Method in brief: as §1

## Cc1cn(-c2cc(NC(=O)c3ccc(C)c(Nc4nccc(-c5cccnc5)n4)c3)cc(C(F)(F)F)c2)cn1 [Nilotinib] + Nc1ncn([C@H]2C[C@H](O)[C@@H](CO)O2)c(=O)n1 [Decitabine] (partner 2 µM)
NCI-H1395; first compound 0.001 µM
  relative viability: 0.745
NCI-H1395; first compound 0.01 µM
  relative viability: 0.798
NCI-H1395; first compound 0.03162 µM
  relative viability: 0.707
NCI-H1395; first compound 0.1 µM
  relative viability: 0.891
SK-LU-1; first compound 0.001 µM
  relative viability: 0.532
SK-LU-1; first compound 0.003162 µM
  relative viability: 0.627
SK-LU-1; first compound 0.01 µM
  relative viability: 0.699
SK-LU-1; first compound 0.03162 µM
  relative viability: 0.424
SK-LU-1; first compound 0.1 µM
  relative viability: 0.532
NCI-H838; first compound 0.001 µM
  relative viability: 0.44
NCI-H838; first compound 0.003162 µM
  relative viability: 0.532
NCI-H838; first compound 0.01 µM
  relative viability: 0.522
NCI-H838; first compound 0.03162 µM
  relative viability: 0.489
NCI-H838; first compound 0.1 µM
  relative viability: 0.637
NCI-H1355; first compound 0.001 µM
  relative viability: 0.355
NCI-H1355; first compound 0.003162 µM
  relative viability: 0.381
NCI-H1355; first compound 0.01 µM
  relative viability: 0.382
NCI-H1355; first compound 0.03162 µM
  relative viability: 0.408
NCI-H1355; first compound 0.1 µM
  relative viability: 0.418
SW 1573; first compound 0.001 µM
  relative viability: 0.455
SW 1573; first compound 0.003162 µM
  relative viability: 0.622
SW 1573; first compound 0.01 µM
  relative viability: 0.924
SW 1573; first compound 0.03162 µM
  relative viability: 0.533
SW 1573; first compound 0.1 µM
  relative viability: 0.297
NCI-H650; first compound 0.001 µM
  relative viability: 0.295
NCI-H650; first compound 0.003162 µM
  relative viability: 0.379
NCI-H650; first compound 0.01 µM
  relative viability: 0.387
NCI-H650; first compound 0.03162 µM
  relative viability: 0.315
NCI-H650; first compound 0.1 µM
  relative viability: 0.306
NCI-H2126; first compound 0.001 µM
  relative viability: 0.541
NCI-H2126; first compound 0.003162 µM
  relative viability: 0.675
NCI-H2126; first compound 0.01 µM
  relative viability: 0.564
NCI-H2126; first compound 0.03162 µM
  relative viability: 0.614
NCI-H2126; first compound 0.1 µM
  relative viability: 0.568
NCI-H322M; first compound 0.001 µM
  relative viability: 0.724
NCI-H322M; first compound 0.003162 µM
  relative viability: 0.786
NCI-H322M; first compound 0.01 µM
  relative viability: 0.673
NCI-H322M; first compound 0.03162 µM
  relative viability: 0.654
NCI-H322M; first compound 0.1 µM
  relative viability: 0.898
LCLC-97TM1; first compound 0.001 µM
  relative viability: 0.201
LCLC-97TM1; first compound 0.003162 µM
  relative viability: 0.283
LCLC-97TM1; first compound 0.01 µM
  relative viability: 0.279
LCLC-97TM1; first compound 0.03162 µM
  relative viability: 0.321
NCI-H2347; first compound 0.001 µM
  relative viability: 0.637
NCI-H2347; first compound 0.003162 µM
  relative viability: 0.694
NCI-H2347; first compound 0.01 µM
  relative viability: 0.718
NCI-H2347; first compound 0.03162 µM
  relative viability: 0.626
NCI-H2347; first compound 0.1 µM
  relative viability: 0.601
BEN; first compound 0.001 µM
  relative viability: 0.787
BEN; first compound 0.003162 µM
  relative viability: 0.727
BEN; first compound 0.01 µM
  relative viability: 0.622
BEN; first compound 0.03162 µM
  relative viability: 0.801
BEN; first compound 0.1 µM
  relative viability: 0.516
NCI-H1944; first compound 0.001 µM
  relative viability: 0.445
NCI-H1944; first compound 0.003162 µM
  relative viability: 0.505
NCI-H1944; first compound 0.01 µM
  relative viability: 0.512
NCI-H1944; first compound 0.03162 µM
  relative viability: 0.591
NCI-H1944; first compound 0.1 µM
  relative viability: 0.537
201T; first compound 0.001 µM
  relative viability: 0.851
201T; first compound 0.003162 µM
  relative viability: 0.973
201T; first compound 0.01 µM
  relative viability: 0.944
201T; first compound 0.03162 µM
  relative viability: 1.01
201T; first compound 0.1 µM
  relative viability: 0.814
NCI-H3122; first compound 0.001 µM
  relative viability: 0.504
NCI-H3122; first compound 0.003162 µM
  relative viability: 0.468
NCI-H3122; first compound 0.01 µM
  relative viability: 0.505
NCI-H3122; first compound 0.03162 µM
  relative viability: 0.471
NCI-H3122; first compound 0.1 µM
  relative viability: 0.314
HOP-62; first compound 0.003162 µM
  relative viability: 0.276
HOP-62; first compound 0.03162 µM
  relative viability: 0.464
HCC-78; first compound 0.001 µM
  relative viability: 0.702
HCC-78; first compound 0.003162 µM
  relative viability: 0.576
HCC-78; first compound 0.01 µM
  relative viability: 0.666
HCC-78; first compound 0.03162 µM
  relative viability: 0.669
HCC-78; first compound 0.1 µM
  relative viability: 0.658
NCI-H1793; first compound 0.001 µM
  relative viability: 0.49
NCI-H1793; first compound 0.003162 µM
  relative viability: 0.263
NCI-H1793; first compound 0.01 µM
  relative viability: 0.87
NCI-H1793; first compound 0.03162 µM
  relative viability: 0.708
NCI-H1793; first compound 0.1 µM
  relative viability: 0.516
LOU-NH91; first compound 0.001 µM
  relative viability: 0.776
LOU-NH91; first compound 0.003162 µM
  relative viability: 0.864
LOU-NH91; first compound 0.01 µM
  relative viability: 0.889
LOU-NH91; first compound 0.03162 µM
  relative viability: 0.898
LOU-NH91; first compound 0.1 µM
  relative viability: 0.837
NCI-H1651; first compound 0.001 µM
  relative viability: 0.572
NCI-H1651; first compound 0.003162 µM
  relative viability: 0.734
NCI-H1651; first compound 0.01 µM
  relative viability: 0.689
NCI-H1651; first compound 0.03162 µM
  relative viability: 0.535
NCI-H1651; first compound 0.1 µM
  relative viability: 0.288
NCI-H441; first compound 0.001 µM
  relative viability: 0.295
NCI-H441; first compound 0.003162 µM
  relative viability: 0.304
NCI-H441; first compound 0.01 µM
  relative viability: 0.284
NCI-H441; first compound 0.03162 µM
  relative viability: 0.367
NCI-H441; first compound 0.1 µM
  relative viability: 0.365
NCI-H1915; first compound 0.001 µM
  relative viability: 0.28
NCI-H1915; first compound 0.003162 µM
  relative viability: 0.271
NCI-H1915; first compound 0.01 µM
  relative viability: 0.255
NCI-H1915; first compound 0.03162 µM
  relative viability: 0.318
NCI-H1915; first compound 0.1 µM
  relative viability: 0.325
